The values that follow come from ChEMBL document CHEMBL4732149, “Evaluation of the cellular protection by novel spiropyrazole compounds in dopaminergic cell death” (Eur J Med Chem, 2021).

For data set [1], the system named is SH-SY5Y. The data set can be described thus: Neuroprotective activity against […]-induced cell death in human SH-SY5Y cells assessed as increase in cell viability preincubated for 1 hr followed by […] stimulation and measured after 24 hrs by MTT assay. The data set is classed as functional, cell-based. Conditions: dose 10-50 µM, time 25.0 hrs. In general terms: Tetrazolium assays rely on reduction of a dye to a coloured formazan, in cell work by metabolically active cells.

In data set [2] the test system is SH-SY5Y. The data set can be described thus: Neuroprotective activity against […]-induced cell death in human SH-SY5Y cells at 10 to 50 uM preincubated for 1 hr followed by […] stimulation and measured after 24 hrs by MTT assay relative to control. The conditions noted are these: dose 10-50 µM, time 25 hrs. The data set is classed as functional.
The test system of data set [3] is SH-SY5Y. Nature of the data set: Cytotoxicity against human SH-SY5Y cells assessed as reduction in cell viability at 10 to 50 uM measured after 24 hrs by MTT assay. Conditions: dose 10-50 µM. The data set is classed as cell-based.
Data set [4] concerns SH-SY5Y. The data set can be described thus: Neuroprotective activity against […]-induced cell death in human SH-SY5Y cells assessed as cell viability at 1 uM preincubated for 1 hr followed by […] stimulation and measured after 24 hrs by MTT assay relative to control. The data set is classed as functional. Conditions: time 25 hrs, read-out: Activity.
Data set [5] is described as follows: Cytotoxicity against human SH-SY5Y cells assessed as cell viability at 50 uM measured after 24 hrs by MTT assay relative to control. The conditions noted are these: read-out: Activity. The data set is classed as cell-based.

As for `NC1=NN(c2ccccc2)C(=O)C12[C@@H](c1ccccc1)c1c([nH]n(-c3ccccc3)c1=O)N[C@H]2c1ccccc1` (stereo partly drawn), the Activity result in data set [1] was “Dose-dependent effect”; in data set [2] it was 27.03%; in data set [3], “Non-Toxic”.

For the compound `COc1cc(/C=C/C(=O)CC(=O)/C=C/c2ccc(O)c(OC)c2)ccc1O` [CURCUMIN], the viability at 1 µM in data set [4] stood at 80.7%.

Turning to `NC1=NN(c2ccccc2)C(=O)C12[C@@H](c1cccc(Br)c1)c1c([nH]n(-c3ccccc3)c1=O)N[C@H]2c1cccc(Br)c1` (stereo in doubt; 3c-1) [listing 1 of 2 here], the Activity in data set [2] was 30.11%; in data set [3], “Non-Toxic”.

As for `NC1=NN(c2ccccc2)C(=O)C12[C@@H](c1ccc(Cl)cc1)c1c([nH]n(-c3ccccc3)c1=O)N[C@H]2c1ccc(Cl)cc1` (stereo partly drawn), the values for the Activity entry in data set [1], in data set [2] and in data set [3] were “Dose-dependent effect”, 20.05% and “Non-Toxic”, respectively. For the same compound, in data set [5], the viability at 24 h, 50 µM came to 84.9%.

`NC1=NN(c2ccccc2)C(=O)C12[C@@H](c1cccc(Br)c1)c1c([nH]n(-c3ccccc3)c1=O)N[C@H]2c1cccc(Br)c1` (stereo in doubt; 3c-2) [listing 1 of 2 here]: the Activity entry in data set [1] is “Dose-dependent effect”.

As for `NC1=NN(c2ccccc2)C(=O)C12[C@@H](c1cccc(Br)c1)c1c([nH]n(-c3ccccc3)c1=O)N[C@H]2c1cccc(Br)c1` (stereo in doubt; 3c-1) [listing 2 of 2 here], in data set [1], the Activity result is “Dose-dependent effect”.

For the compound `COc1ccc([C@H]2c3c([nH]n(-c4ccccc4)c3=O)N[C@@H](c3ccc(OC)cc3)C23C(=O)N(c2ccccc2)N=C3N)cc1` (stereo partly drawn), the Activity result is “Dose-dependent effect” in data set [1], 26.54% in data set [2] and “Non-Toxic” in data set [3].

As to `NC1=NN(c2ccccc2)C(=O)C12[C@@H](c1ccccc1[N+](=O)[O-])c1c([nH]n(-c3ccccc3)c1=O)N[C@H]2c1ccccc1[N+](=O)[O-]` (stereo partly drawn), the Activity entry in data set [1] was “Dose-dependent effect”; in data set [2] it was 20.21%; in data set [3], “Non-Toxic”.

As for `NC1=NN(c2ccccc2)C(=O)C12[C@@H](c1cccc([N+](=O)[O-])c1)c1c([nH]n(-c3ccccc3)c1=O)N[C@H]2c1cccc([N+](=O)[O-])c1` (stereo partly drawn), the Activity result in data set [1] is “Dose-dependent effect”; in data set [2] it was 22.81%; in data set [3], “Non-Toxic”.

`NC1=NN(c2ccccc2)C(=O)C12[C@@H](c1cccs1)c1c([nH]n(-c3ccccc3)c1=O)N[C@H]2c1cccs1` (stereo partly drawn): the Activity entry was “Dose-dependent effect” in data set [1], 18.43% in data set [2] and “Non-Toxic” in data set [3].

With `Cc1ccc([C@H]2c3c([nH]n(-c4ccccc4)c3=O)N[C@@H](c3ccc(C)cc3)C23C(=O)N(c2ccccc2)N=C3N)cc1` (stereo partly drawn), the Activity result was “Dose-dependent effect” in data set [1], 28.66% in data set [2] and “Non-Toxic” in data set [3].

`NC1=NN(c2ccccc2)C(=O)C12[C@@H](c1cccc(Br)c1)c1c([nH]n(-c3ccccc3)c1=O)N[C@H]2c1cccc(Br)c1` (stereo in doubt; 3c-2) [listing 2 of 2 here] came in with an Activity in data set [2] of 33.52%.
